The assay addresses T1, rat EP4R (Rattus norvegicus, UniProt P43114).
T1 construct: whole blood culture samples from animals treated orally with vehicle or Compound 1; from tissue; host or cells: whole blood of male Wistar Han rats
Kind of assay: Ex vivo TNF-α release induced by LPS in whole blood of orally dosed rats: PGE2 IC50 vs dose and time. On the procedure: Male Wistar Han rats (250-300 g b.w., Charles River, Italy) were housed six per cage in a temperature controlled room, set to maintain temperature within the range of 20° C. ±2° C. and relative humidity within the range of 55%+10 and with a 12-h/12-h light/dark cycle. Throughout the study animals had free access to standard laboratory chow (Teklad rodent diet 2018, Harlan Laboratories, S. Pietro al Natisone, UD, Italy) and drinking water. Care and handling of the animals were in accordance with the guidelines of the Local Government and the regulations of the European Community.
Authorization for experimental procedures was granted by the Italian Ministry of Health. […]
In details the day of the experiments, animals were anaesthetized with 2.5-3% isoflurane in O2 inside an induction chamber and blood (in average 7 ml/rat) was drawn from the abdominal aorta. […] Compared to the reference standard curve, TNF-α levels in samples were expressed as concentration (pg/ml).
For each animal, percent of inhibition by different PGE2 concentrations with respect to control sample, and the corresponding IC50 (or the half-maximal inhibitory concentration in a range 0-100% inhibition) were calculated by linear regression analysis. Moreover, in each treatment group either the mean TNF-α levels and the mean % inhibition by PGE2 were calculated. […]

T1 sequence (P43114 whole entry): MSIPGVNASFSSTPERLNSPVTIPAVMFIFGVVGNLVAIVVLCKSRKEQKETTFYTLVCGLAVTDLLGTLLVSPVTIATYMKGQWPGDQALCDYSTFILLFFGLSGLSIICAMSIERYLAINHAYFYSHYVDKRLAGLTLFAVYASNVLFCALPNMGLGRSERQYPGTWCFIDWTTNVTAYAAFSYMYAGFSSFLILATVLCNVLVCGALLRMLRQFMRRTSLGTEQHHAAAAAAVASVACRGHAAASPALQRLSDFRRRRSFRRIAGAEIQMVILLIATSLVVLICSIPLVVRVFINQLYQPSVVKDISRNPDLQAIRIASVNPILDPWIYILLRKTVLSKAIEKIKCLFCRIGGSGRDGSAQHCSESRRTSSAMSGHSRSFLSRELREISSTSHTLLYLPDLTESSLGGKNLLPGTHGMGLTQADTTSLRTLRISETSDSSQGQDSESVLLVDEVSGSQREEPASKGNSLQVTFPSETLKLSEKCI

For the molecule `O=C([O-])c1ccc(C2(NC(=O)[C@H]3CC4(CCN3Cc3ccc(C(F)(F)F)cc3)CC4)CC2)cc1.[Na+]` [Compound 1, sodium (R)-4-(1-(6-(4-(trifluoromethyl)benzyl)-6-azaspiro[2.5]octane-5-carboxamido)cyclopropyl)benzoate], the “reversion of PGE2 TNF-α release inhibition, time course” value (10 mg/kg oral, blood sampling 1-3-24 hours) was “still evident also 24 hours after Compound 1 administration”. Moreover, the minimum effective dose (oral, rat, reversion of PGE2 inhibition of TNF-α release) is 10 mg/kg.

Values taken from patent US12544365B2, “Pharmaceutical combination of an EP4 antagonist and immune checkpoint inhibitors for the treatment of tumours” (ROTTAPHARM BIOTECH S.R.L., priority 2019, dated 2026).
